Laboratory results published in ChEMBL document CHEMBL1201862, “PubChem BioAssay data set” (2004).
The source made the active and inactive calls.

Assays:
Bcl-2-related protein A1 [1] = target: T1, Bcl-2-related protein A1 (Mus musculus, UniProt Q07440); test: Bfl-1 binding inhibitors, SAR follow-up, biochemical, fluorescence polarization (AID 1070)
T1 sequence (Q07440 whole entry): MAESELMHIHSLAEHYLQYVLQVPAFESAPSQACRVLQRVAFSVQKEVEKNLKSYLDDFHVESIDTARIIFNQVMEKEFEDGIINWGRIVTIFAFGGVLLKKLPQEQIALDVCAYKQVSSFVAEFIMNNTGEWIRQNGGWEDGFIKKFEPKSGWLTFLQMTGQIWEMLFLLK

Bcl-2-related protein A1 [2] = target: T1, Bcl-2-related protein A1; test: Bfl-1 inhibitors blocking BH3 peptide binding, confirmation, biochemical, TR-FRET, mouse Bfl-1 (AID 621);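 also: TR-FRET binding of GST-Bfl-1 to FITC-labelled Bid peptide via terbium antibody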
[3] = target: Glyceraldehyde-3-phosphate dehydrogenase (Homo sapiens, UniProt P04406)
[4] = system: Streptococcus sp. 'group A'; test: growth inhibition of control SK(-) GAS strain, dose response, counter-screen for streptokinase expression inhibitor project, luminescence, kanamycin, BacTiterGlo, confirmation (AID 1900); assay type: functional, organism-based
[5] = target: Aryl hydrocarbon receptor (Homo sapiens, UniProt P35869); test: Luminescence-based cell-based high throughput dose response assay for activators of the Aryl Hydrocarbon Receptor (AHR). [Related pubchem assays: 2796 (Primary screen (AHR activators in singlicate)), 2845 (Confirmation screen (AHR activators in triplicate)), 434939 (Counterscreen (PXR activators in triplicate)), 2804 (Summary (AHR activators))]; assay type: ADME
Chain of Aryl hydrocarbon receptor (P35869 whole entry): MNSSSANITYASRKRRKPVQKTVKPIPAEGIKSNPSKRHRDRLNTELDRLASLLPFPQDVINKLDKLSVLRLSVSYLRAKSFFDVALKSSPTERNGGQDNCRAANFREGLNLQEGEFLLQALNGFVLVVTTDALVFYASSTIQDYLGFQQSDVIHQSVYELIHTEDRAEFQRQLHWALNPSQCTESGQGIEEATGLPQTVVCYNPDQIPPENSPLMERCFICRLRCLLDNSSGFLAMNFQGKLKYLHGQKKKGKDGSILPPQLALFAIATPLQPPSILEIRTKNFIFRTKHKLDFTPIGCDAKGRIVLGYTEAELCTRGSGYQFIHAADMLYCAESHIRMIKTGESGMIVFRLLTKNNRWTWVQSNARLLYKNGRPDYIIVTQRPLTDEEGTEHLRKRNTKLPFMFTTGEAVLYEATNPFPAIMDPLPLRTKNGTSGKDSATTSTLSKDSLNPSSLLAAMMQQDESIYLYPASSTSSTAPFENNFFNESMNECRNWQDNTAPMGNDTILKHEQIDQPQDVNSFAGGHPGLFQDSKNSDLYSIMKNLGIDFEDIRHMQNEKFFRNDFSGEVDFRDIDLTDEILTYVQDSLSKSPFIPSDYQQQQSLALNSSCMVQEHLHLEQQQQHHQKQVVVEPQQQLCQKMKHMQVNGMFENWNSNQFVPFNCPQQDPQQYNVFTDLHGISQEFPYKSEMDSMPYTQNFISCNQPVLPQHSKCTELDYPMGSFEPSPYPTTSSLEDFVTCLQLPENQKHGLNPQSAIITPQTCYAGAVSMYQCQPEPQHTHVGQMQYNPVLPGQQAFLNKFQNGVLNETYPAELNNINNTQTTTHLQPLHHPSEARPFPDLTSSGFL

Streptococcus = test: Group A Streptococcus viability loss, dose response, counter-screen for streptokinase expression inhibitor project, luminescence, BacTiterGlo (AID 1915); assay type: functional, organism-based;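 also: potency for reduction of bacterial viability or growth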
Streptokinase A = target: T2, Streptokinase A (Streptococcus pyogenes serotype M1, UniProt P10520); test: S. pyogenes streptokinase expression inhibitors, potency, dose response, plasminogen activation absorbance, OD405 (AID 1914); assay type: functional, Streptococcus pyogenes M1 GAS;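 also: secreted streptokinase activity via plasminogen activation per viability signal from cell pellet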
T2 sequence (P10520 whole entry): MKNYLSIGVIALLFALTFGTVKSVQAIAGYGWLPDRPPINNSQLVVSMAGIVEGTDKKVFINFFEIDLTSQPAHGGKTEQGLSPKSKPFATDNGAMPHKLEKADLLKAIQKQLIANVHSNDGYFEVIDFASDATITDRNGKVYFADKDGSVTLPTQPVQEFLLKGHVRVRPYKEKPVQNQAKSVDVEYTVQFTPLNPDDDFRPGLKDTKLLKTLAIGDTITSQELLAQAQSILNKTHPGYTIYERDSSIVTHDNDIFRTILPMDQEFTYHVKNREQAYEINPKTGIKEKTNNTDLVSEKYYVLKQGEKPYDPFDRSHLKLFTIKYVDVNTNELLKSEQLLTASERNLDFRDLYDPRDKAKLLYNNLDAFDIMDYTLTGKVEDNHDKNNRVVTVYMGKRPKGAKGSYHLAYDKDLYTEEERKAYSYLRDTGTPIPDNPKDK

[6] = target: T3, RNA-binding protein pos-1 (Caenorhabditis elegans, UniProt G5EF15); test: inhibitors of POS-1/mex-3 RNA binding, dose response, biochemical, fluorescence polarization (AID 1964);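 also: purified POS-1 fused to maltose binding protein made in E. coli; potency of compounds blocking POS-1 binding to fluorescent RNA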
T3 sequence (G5EF15 whole entry): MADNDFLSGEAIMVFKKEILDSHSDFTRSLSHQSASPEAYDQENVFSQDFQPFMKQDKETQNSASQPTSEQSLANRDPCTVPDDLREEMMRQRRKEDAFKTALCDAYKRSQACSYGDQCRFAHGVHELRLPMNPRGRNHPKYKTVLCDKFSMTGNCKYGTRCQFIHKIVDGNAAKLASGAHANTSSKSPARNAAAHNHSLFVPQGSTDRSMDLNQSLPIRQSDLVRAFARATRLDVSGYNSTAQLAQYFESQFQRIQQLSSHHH

Bcl-2-related protein A1 [7] = target: T1, Bcl-2-related protein A1; test: Bfl-1 inhibitors, primary screen, biochemical, fluorescence polarization, FITC-Bid, mouse (AID 432)
[8] = target: T4, Zinc finger protein mex-5 (Caenorhabditis elegans, UniProt Q9XUB2); test: MEX-5/TCR-2 RNA interaction inhibitors, dose response, biochemical, C. elegans, fluorescence polarization (AID 1960)
T4 sequence (Q9XUB2 whole entry): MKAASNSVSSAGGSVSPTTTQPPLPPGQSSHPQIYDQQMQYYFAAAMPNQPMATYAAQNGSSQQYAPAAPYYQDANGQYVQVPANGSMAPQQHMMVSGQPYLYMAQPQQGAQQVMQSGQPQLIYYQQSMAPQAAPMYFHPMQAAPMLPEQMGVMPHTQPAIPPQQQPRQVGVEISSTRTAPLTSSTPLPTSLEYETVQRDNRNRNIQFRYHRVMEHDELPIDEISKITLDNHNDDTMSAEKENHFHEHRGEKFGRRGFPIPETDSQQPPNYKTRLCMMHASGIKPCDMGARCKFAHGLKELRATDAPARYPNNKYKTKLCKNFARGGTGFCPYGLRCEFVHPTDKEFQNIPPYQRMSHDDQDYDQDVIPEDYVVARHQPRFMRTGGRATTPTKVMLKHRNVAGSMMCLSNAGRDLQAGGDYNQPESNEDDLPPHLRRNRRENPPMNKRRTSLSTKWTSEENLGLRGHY

[9] = Vero cell cytotoxicity, dose response, cytotoxicity control for Vif-APOBEC3G degradation inhibitor project, Vero cells (AID 1117358); assay type: functional; conditions: Human immunodeficiency virus 1, Vero
[10] = Luminescence Cell-Based Dose Confirmation HTS to Identify Inhibitors of Platelet Dense Granule Release. [Related pubchem assays: 1663 (Primary HTS), 1678 (Summary of Project)]; assay type: functional
[11] = target: Luciferin 4-monooxygenase (Photinus pyralis, UniProt P08659); test: firefly luciferase enzyme inhibitors, dose response, biochemical, luminescence (AID 1891)
Chain of Luciferin 4-monooxygenase (P08659 whole entry): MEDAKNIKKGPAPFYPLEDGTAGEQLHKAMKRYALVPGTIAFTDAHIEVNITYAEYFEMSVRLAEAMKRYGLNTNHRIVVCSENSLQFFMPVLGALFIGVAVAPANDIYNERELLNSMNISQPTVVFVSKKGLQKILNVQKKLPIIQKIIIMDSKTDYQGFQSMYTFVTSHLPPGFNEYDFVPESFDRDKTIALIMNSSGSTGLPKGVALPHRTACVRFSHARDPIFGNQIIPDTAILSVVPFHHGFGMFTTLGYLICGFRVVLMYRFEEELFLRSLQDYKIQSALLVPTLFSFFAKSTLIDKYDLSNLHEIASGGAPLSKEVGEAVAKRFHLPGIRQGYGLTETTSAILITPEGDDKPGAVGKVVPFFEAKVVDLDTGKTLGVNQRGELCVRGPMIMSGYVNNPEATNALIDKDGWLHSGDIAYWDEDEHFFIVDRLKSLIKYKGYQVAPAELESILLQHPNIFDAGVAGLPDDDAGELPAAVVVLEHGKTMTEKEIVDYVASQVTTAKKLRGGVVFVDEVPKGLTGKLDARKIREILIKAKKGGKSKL

Ephrin type-A receptor 4 = Ephrin type-A receptor 4 (Mus musculus, UniProt Q03137); test: inhibitors of EphA4 binding to KYL peptide, primary screen, biochemical, colorimetric, mouse EphA4 (AID 689); assay type: functional
[12] = target: Transitional endoplasmic reticulum ATPase (Homo sapiens, UniProt P55072, C522A); test: Luminescence counterscreen assay for p97 inhibitors: dose response biochemical high throughput screening assay to identify inhibitors of the C522A mutant p97 ATPase: synthesized compounds. [Related pubchem assays: 1481, 1517, 1551 ]
[13] = target: Transitional endoplasmic reticulum ATPase (Homo sapiens, UniProt P55072); test: Luminescence dose response biochemical high throughput screening assay for inhibitors of the p97 ATPase: synthesized compounds. [Related pubchem assays: 1481, 1517 ]
[14] = Counterscreen for activators of the function of SWI/SNF related, matrix associated, actin dependent regulator of chromatin, subfamily a, member 2 (SMARCA2, BRM): Luminescence-based cell-based high throughput dose response assay to identify non-selective compounds using the VP16 reporter assay.; assay type: functional
Transthyretin = Transthyretin (Homo sapiens, UniProt P02766); test: Luminescence-based cell-based high throughput dose response assay to identify activators of Transthyretin (TTR) transcription.; assay type: functional
Cytochrome P450 2C9 = Cytochrome P450 2C9 (Homo sapiens, UniProt P11712)
Chain of Cytochrome P450 2C9 (P11712 whole entry): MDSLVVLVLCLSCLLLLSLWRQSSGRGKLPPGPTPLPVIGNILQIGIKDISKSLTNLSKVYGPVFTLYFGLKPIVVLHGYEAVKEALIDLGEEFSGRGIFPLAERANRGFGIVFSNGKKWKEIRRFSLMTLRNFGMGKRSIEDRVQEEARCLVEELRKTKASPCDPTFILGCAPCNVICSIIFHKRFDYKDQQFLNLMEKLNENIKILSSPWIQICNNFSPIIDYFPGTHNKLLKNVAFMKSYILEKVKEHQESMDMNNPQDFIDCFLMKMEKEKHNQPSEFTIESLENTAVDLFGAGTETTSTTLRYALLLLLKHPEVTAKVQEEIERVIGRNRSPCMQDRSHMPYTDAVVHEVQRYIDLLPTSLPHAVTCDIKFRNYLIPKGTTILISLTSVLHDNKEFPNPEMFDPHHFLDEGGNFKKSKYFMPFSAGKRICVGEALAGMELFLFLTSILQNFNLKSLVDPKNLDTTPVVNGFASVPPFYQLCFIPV

[15] = Luminescence-based cell-based high throughput dose response assay to identify activators of the DAF-12 from the parasite S. stercoralis (ssDAF-12).; assay type: functional
[16] = target: Photoreceptor-specific nuclear receptor (Homo sapiens, UniProt Q9Y5X4); assay type: functional, cell-based;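 also: CHO-S cells with Gal4-NCOR and VP16-NR2E3 two-hybrid luciferase reporter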
[17] = target: SWI/SNF-related matrix-associated actin-dependent regulator of chromatin subfamily A member 2 (Homo sapiens, UniProt P51531); test: Luminescence-based cell-based high throughput dose response assay to identify activators of the function of SWI/SNF related, matrix associated, actin dependent regulator of chromatin, subfamily a, member 2 (SMARCA2, BRM).; assay type: functional
Vero = test: cytotoxicity of synthesized analogs in Vero cells, SAR follow-up, cytotoxicity control for West Nile virus antiviral project, cell-based, set II (AID 2402); assay type: functional; conditions: Chlorocebus sabaeus
[18] = target: Voltage-gated inwardly rectifying potassium channel KCNH2 (Homo sapiens, UniProt Q12809); test: hERG protection from proarrhythmic block, potency, dose response, cell-based, thallium flux (AID 2121); assay type: ADME
Chain of Voltage-gated inwardly rectifying potassium channel KCNH2 (Q12809 whole entry): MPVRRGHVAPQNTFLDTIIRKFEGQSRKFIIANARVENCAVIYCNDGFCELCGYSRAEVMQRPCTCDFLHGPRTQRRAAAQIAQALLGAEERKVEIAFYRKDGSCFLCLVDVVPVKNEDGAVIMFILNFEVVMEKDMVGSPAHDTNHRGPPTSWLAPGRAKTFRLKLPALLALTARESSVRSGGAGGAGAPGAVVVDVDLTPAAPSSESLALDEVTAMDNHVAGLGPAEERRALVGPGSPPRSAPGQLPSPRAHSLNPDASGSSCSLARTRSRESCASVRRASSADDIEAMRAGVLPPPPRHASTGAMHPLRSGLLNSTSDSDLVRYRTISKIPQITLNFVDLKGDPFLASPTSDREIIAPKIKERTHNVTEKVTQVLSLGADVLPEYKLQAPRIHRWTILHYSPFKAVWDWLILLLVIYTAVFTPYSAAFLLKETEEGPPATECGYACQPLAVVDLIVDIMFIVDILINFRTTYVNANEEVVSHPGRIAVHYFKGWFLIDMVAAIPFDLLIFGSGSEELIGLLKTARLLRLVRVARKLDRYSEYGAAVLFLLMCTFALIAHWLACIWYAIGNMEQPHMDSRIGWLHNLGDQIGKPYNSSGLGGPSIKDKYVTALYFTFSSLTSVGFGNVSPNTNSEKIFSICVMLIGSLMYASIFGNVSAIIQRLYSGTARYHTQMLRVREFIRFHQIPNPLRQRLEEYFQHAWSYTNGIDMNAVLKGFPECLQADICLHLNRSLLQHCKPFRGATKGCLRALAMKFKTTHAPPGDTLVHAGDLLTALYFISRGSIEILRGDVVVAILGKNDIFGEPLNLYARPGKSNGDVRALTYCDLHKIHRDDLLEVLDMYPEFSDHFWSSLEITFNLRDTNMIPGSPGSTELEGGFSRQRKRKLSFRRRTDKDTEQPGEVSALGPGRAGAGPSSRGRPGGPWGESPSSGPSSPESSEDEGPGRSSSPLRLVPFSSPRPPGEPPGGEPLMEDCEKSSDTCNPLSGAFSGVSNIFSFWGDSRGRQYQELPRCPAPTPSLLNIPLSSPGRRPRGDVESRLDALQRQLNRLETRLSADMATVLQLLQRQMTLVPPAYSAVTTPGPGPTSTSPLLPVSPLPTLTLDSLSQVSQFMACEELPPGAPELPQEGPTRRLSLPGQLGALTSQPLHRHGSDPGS

NADPH oxidase 1 = NADPH oxidase 1 (Homo sapiens, UniProt Q9Y5S8); test: Late-stage luminescence-based cell-based dose response assay to identify inhibitors of NADPH oxidase 1 (NOX1): Synthesized analogs 3.; assay type: functional
Chain of NADPH oxidase 1 (Q9Y5S8 whole entry): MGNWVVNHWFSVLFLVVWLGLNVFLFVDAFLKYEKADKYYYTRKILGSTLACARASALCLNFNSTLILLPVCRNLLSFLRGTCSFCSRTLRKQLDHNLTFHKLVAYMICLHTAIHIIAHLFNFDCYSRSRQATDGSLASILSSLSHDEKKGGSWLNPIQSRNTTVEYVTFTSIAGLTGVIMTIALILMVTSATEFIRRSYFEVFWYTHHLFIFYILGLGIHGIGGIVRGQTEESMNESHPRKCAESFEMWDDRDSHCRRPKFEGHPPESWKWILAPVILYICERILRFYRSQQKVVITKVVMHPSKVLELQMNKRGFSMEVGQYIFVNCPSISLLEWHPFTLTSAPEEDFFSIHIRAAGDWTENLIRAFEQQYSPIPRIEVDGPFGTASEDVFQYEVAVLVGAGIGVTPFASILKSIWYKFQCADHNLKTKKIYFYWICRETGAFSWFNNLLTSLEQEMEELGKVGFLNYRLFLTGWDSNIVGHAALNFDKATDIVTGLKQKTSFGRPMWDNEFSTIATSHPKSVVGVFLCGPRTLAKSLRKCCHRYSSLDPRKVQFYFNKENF

[19] = target: Signal transducer and activator of transcription 1-alpha/beta (Homo sapiens, UniProt P42224); test: STAT1 signalling inhibitors, dose response, cell-based, NIH 3T3, luciferase reporter (AID 1396); assay type: functional
Chain of Signal transducer and activator of transcription 1-alpha/beta (P42224 whole entry): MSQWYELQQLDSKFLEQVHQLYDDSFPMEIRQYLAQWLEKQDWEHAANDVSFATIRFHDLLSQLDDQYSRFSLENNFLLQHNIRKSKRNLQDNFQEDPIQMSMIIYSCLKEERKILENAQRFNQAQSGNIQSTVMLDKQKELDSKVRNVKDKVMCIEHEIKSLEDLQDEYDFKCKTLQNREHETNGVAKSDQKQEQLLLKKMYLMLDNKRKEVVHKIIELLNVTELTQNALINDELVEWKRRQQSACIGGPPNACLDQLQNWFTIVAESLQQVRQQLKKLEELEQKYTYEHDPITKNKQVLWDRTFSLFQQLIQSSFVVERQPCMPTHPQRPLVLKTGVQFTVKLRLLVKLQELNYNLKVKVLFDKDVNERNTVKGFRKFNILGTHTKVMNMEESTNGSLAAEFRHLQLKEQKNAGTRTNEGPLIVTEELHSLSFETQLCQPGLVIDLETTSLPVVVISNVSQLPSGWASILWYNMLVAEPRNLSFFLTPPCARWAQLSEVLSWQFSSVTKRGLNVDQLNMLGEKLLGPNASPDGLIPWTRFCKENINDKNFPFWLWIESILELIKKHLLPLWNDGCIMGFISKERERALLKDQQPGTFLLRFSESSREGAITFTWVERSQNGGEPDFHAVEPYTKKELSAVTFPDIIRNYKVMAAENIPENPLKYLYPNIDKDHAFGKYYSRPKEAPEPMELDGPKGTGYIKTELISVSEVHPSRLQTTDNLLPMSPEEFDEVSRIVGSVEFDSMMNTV

[20] = target: RNA-editing ligase 1, mitochondrial (Trypanosoma brucei brucei, UniProt P86926); test: TbREL1 ligase inhibitors, dose response, biochemical, fluorescence, Trypanosoma brucei (AID 1117295); assay type: functional
Chain of RNA-editing ligase 1, mitochondrial (P86926 whole entry): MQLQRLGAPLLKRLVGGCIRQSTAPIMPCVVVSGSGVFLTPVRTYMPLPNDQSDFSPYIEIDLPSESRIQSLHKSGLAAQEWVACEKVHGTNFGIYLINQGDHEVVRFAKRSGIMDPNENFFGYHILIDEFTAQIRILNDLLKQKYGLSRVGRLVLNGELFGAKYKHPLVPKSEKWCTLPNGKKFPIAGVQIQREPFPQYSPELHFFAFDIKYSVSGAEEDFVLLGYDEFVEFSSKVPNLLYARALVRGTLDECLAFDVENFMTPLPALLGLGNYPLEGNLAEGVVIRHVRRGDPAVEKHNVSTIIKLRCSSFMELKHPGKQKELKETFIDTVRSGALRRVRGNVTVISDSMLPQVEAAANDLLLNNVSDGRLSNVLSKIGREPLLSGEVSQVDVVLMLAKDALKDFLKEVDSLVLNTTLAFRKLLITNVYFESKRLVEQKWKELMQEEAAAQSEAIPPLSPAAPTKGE

Phospholipase D1 = target: T5, Phospholipase D1 (Homo sapiens, UniProt Q13393); test: PLD1 Cellular Concentration Response Study.; assay type: functional
T5 sequence (Q13393 whole entry): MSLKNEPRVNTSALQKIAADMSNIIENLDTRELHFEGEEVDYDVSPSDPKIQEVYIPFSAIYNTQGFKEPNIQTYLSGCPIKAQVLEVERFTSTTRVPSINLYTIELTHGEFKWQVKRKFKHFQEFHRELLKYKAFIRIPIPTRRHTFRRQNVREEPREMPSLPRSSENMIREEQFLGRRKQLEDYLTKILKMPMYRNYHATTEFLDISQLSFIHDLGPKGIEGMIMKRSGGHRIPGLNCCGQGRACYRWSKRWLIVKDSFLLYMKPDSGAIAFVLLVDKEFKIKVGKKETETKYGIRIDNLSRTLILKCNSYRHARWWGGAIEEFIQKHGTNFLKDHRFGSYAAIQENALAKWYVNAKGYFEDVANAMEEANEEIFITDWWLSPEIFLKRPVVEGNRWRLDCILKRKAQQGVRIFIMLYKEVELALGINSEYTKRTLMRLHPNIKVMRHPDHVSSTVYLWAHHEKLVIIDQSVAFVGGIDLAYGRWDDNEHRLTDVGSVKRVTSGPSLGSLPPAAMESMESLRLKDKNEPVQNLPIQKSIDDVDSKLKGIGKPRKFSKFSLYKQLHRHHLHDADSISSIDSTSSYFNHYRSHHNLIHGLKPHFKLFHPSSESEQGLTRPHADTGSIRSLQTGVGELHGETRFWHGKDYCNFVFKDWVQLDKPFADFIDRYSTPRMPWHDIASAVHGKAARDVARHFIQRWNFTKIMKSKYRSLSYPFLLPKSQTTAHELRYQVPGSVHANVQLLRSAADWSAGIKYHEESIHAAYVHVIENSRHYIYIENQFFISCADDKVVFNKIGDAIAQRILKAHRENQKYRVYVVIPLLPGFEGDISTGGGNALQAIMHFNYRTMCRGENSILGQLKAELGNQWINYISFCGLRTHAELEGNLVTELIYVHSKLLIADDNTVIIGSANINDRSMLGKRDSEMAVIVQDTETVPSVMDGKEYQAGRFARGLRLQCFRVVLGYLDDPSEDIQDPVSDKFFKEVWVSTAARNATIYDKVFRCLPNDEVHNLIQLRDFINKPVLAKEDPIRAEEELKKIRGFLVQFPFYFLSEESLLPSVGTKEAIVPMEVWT

Phospholipase D2 = Phospholipase D2 (Homo sapiens, UniProt O14939); test: PLD2 Cellular Concentration Response Study.; assay type: functional
[21] = target: Metabotropic glutamate receptor 7 (Homo sapiens, UniProt Q14831); test: mGlu7 positive allosteric modulators, dose response, cell-based, calcium mobilization, Galpha15 (AID 743384); assay type: functional
cells = conditions: HEK293

Structure (SMILES): Cc1cccc(N2C(=O)C(Cl)=C(N3CCN(C)CC3)C2=O)c1
- IC50 (Bcl-2-related protein A1 [1]): 12.6 µM (active)
- IC50 (Bcl-2-related protein A1 [2]): 10.8 µM (active)
- IC50 [3]: > 100 µM (not active)

Structure (SMILES): O=C(Nc1cccnc1)Nc1cc(Cl)cc(Cl)c1
- EC50 [4]: 7.83 µM (active)
- EC50 [5]: > 1.13 µM (active)
- EC50 (Streptococcus): 85.4 µM (active)
- EC50 (Streptokinase A): > 150 µM (not active)

Structure (SMILES): CN1CC=C2C(C#N)=C(N)C(C#N)(C#N)[C@H](c3cccc(Cl)c3)C2C1 (some centres not stated)
- EC50 [6]: 12.5 µM (active)
- IC50 (Bcl-2-related protein A1 [7]): > 100 µM (not active)
- IC50 (Bcl-2-related protein A1 [2]): > 100 µM (not active)
- EC50 [8]: 11.6 µM (active)

Structure (SMILES): CCOc1cc(C)c(Cl)cc1S(=O)(=O)NCc1ccco1
- CC50 [9]: 27.7 µM (active)

Structure (SMILES): Cc1c(NC(=O)CCN2C(=O)c3ccccc3C2=O)c(=O)n(-c2ccccc2)n1C
- EC50 [10]: > 112 µM (not active)
- EC50 [11]: > 112 µM (not active)
- IC50 (Ephrin type-A receptor 4): > 100 µM (not active)

Structure (SMILES): CCOc1ccc(-c2csc(Nc3ccc(C#N)cc3)n2)cc1
- IC50 [12]: > 50 µM (not active)
- IC50 [13]: > 50 µM (not active)

Structure (SMILES): Cc1cnc(NC(=O)CCCc2nc3ccccc3s2)s1
- EC50 [14]: > 91.2 µM (inactive)
- EC50 (Transthyretin): > 167 µM (inactive)
- AC50 (Cytochrome P450 2C9): 5.62 µM (inconclusive)
- IC50 [15]: > 67.5 µM (inactive)
- IC50 [16]: 0.563 µM (active)
- EC50 [17]: > 91.2 µM (inactive)

Structure (SMILES): O=c1c2cc(I)ccc2nc2n1CCC2
- CC50 (Vero): > 100 µM (active)

Structure (SMILES): CCc1nnc(NC(=O)CSc2nc(-c3ccccc3)cc(-c3ccc(OC)cc3)c2C#N)s1
- EC50 [18]: 1.31 µM (active)

Structure (SMILES): CN1c2ccc(Br)cc2Sc2cc(C(=O)c3ccccc3)ccc21
- IC50 (NADPH oxidase 1): > 20 µM (not active)

Structure (SMILES): Cc1ccc(C2=NN=C(c3ccncc3)c3ccc4ccccc4c3N2)cc1
- IC50 [19]: 3.52 µM (active)

Structure (SMILES): COC(=O)C1=C(C)N(Cc2cccc(C(F)(F)F)c2)C(NCc2ccc(OC)cc2)=NC1c1ccc(F)cc1 (configuration not stated)
- IC50 [20]: > 96.6 µM (inactive)

Structure (SMILES): O=C(NCCN1CCC2(CC1)C(=O)NCN2Cc1ccccc1Cl)c1ccc2ccccc2c1
- IC50 (Phospholipase D1): 2.3 µM (active)
- IC50 (Phospholipase D2): 0.11 µM (active)

Structure (SMILES): COC(=O)c1ccc(-n2c(C)cc(C(=O)CSCc3ccc(OC)cc3)c2C)cc1
- EC50 [21]: 1 µM (active)

Structure (SMILES): CC(C)Oc1cccc(OCCn2cnc3ccccc32)c1
- AC50 (cells): > 52 µM (inactive)
